According to patent publication US10253039B2, “Inhibitors of bacterial DNA gyrase with efficacy against gram-negative bacteria” (priority 2014, dated 2019):
Converted amounts (≈) assume the structure as drawn. Like-named read-outs stand apart in the source and are kept apart here.

Experiments:
Bacillus cereus = experiment: MIC, 20-strain panel; assay type: cell-based; conditions: Table 7, separate set of experiments, read-out: MIC
Method in brief: (§1)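 Broth microdilution per CLSI guidance: each strain was diluted 1:10000 from a growing subculture into Luria-Bertani medium, and compound was serially diluted 2-fold in triplicate alongside a DMSO column. Plates were shaken at 37° C. for 16-18 hours; MIC is the lowest concentration showing no visible turbidity.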

Bacillus subtilis 168 = experiment: MIC, 20-strain panel; assay type: cell-based; conditions: Table 7, separate set of experiments, read-out: MIC
Method in brief: as §1

E. coli JW5503 (deltolC) = experiment: MIC, 20-strain panel; assay type: cell-based; conditions: Escherichia coli, E. coli JW5503 (deltolC); Table 7, separate set of experiments
Method in brief: as §1

E. coli MG1655 = experiment: MIC, 20-strain panel; assay type: cell-based; conditions: Escherichia coli, MG1655, E. coli MG1655; Table 7, separate set of experiments; read-out: MIC
Method in brief: as §1

Enterococcus faecalis = experiment: MIC, 20-strain panel; assay type: cell-based; conditions: Table 7, separate set of experiments
Method in brief: as §1

Enterococcus faecium = experiment: MIC, 20-strain panel; assay type: cell-based; conditions: Table 7, separate set of experiments, read-out: MIC
Method in brief: as §1

[1] = test system: Klebsiella pneumoniae subsp. pneumoniae; experiment: MIC, 20-strain panel; assay type: cell-based; conditions: Klebsiella pneumoniae subsp. pneumoniae, Table 7, separate set of experiments, read-out: MIC
Method in brief: as §1

[2] = test system: Morganella morganii subsp. morganii; experiment: MIC, 20-strain panel; assay type: cell-based; conditions: Morganella morganii subsp. morganii; Table 7, separate set of experiments; read-out: MIC
Method in brief: as §1

[3] = test system: Salmonella enterica subsp. enterica typhimurium; experiment: MIC, 20-strain panel; assay type: cell-based; conditions: Salmonella enterica subsp. enterica typhimurium, Table 7, separate set of experiments
Method in brief: as §1

Shigella flexneri = experiment: MIC, 20-strain panel; assay type: cell-based; conditions: Table 7, separate set of experiments
Method in brief: as §1

[4] = test system: Staphylococcus aureus subsp. aureus; experiment: MIC, 20-strain panel; assay type: cell-based; conditions: Staphylococcus aureus subsp. aureus, Table 7, separate set of experiments, read-out: MIC
Method in brief: as §1

[5] = test system: Staphylococcus epidermidis; experiment: MIC, 20-strain panel; assay type: cell-based; conditions: Table 7, separate set of experiments, read-out: MIC
Method in brief: as §1

[6] = test system: Staphylococcus saprophyticus subsp. saprophyticus; experiment: MIC, 20-strain panel; assay type: cell-based; conditions: Staphylococcus saprophyticus subsp. saprophyticus, Table 7, separate set of experiments, read-out: MIC
Method in brief: as §1

Streptococcus agalactiae = experiment: MIC, 20-strain panel; assay type: cell-based; conditions: Table 7, separate set of experiments, read-out: MIC
Method in brief: as §1

Streptococcus pyogenes = experiment: MIC, 20-strain panel; assay type: cell-based; conditions: Table 7, separate set of experiments, read-out: MIC
Method in brief: as §1

[7] = biological target: T1, GyrBAfus:20-20 bp DNA complex (Staphylococcus aureus, UniProt P0A0K8+P20831); experiment: 1H NMR binding study, titration; conditions: titrating 1:1 GyrBAfus:20-20 bp DNA into 50 μM compound
T1 construct: The C-terminal end of the B subunit was connected to the N-terminal end of the A subunit
T1 sequence (P0A0K8 410-543): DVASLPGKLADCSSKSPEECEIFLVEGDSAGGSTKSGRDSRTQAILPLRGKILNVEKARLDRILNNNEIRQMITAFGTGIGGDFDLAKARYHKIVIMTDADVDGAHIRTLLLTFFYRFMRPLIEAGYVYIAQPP
T1 sequence (P0A0K8 580-644): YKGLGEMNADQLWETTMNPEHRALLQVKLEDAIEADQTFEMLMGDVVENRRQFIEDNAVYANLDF
T1 sequence (P20831 2-491): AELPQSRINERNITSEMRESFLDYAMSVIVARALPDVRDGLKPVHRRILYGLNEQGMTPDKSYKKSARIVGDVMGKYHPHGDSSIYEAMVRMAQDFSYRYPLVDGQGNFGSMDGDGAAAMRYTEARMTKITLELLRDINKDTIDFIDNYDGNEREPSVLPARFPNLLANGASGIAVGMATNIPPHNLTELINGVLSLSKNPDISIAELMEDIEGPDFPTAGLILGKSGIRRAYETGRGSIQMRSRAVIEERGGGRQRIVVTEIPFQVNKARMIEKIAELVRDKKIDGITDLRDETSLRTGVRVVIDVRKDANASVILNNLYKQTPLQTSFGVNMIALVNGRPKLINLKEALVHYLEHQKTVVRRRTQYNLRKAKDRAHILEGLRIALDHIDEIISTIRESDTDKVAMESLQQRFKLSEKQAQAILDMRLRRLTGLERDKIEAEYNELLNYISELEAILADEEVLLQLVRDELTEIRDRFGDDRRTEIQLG

[8] = test system: mutant E. coli (with a drug pump knock out); experiment: Killing of mutant E. coli; assay type: cell-based, Escherichia coli
E. coli BW25113 ΔtolC = experiment: MIC, microdilution in 96-well plates; conditions: Escherichia coli
Vibrio cholera = experiment: MIC, microdilution in 96-well plates; conditions: Vibrio cholerae
Morganella morganii = experiment: MIC, microdilution in 96-well plates
Shigella boydii = experiment: MIC, microdilution in 96-well plates
Klebsiella pneumonia = experiment: MIC, microdilution in 96-well plates; conditions: Klebsiella pneumoniae
Salmonella typhimurium = experiment: MIC, microdilution in 96-well plates; conditions: Salmonella enterica
[9] = test system: E. coli BW25113 ΔtolC gyrR isolate GyrA Pro35Thr; experiment: MIC against gyramide-resistant mutant; conditions: Escherichia coli, BW25113
Protocol: (§2) A microdilution method in 96-well plates was used and the MIC protocol established by the Clinical Laboratory Standards Institute was followed. From a growing subculture, a 1:10000 inoculum of each strain in Luria-Bertani media was prepared and aliquoted 100 μL in 4 columns of wells, except for the top row wells, which contained 200 μL of inoculum. […] The liquid in each of wells was mixed with a multi-channel pipet and 100 μL was transferred to the next well and mixed. The 2-fold dilution was continued down the 96-well plate until 100 μL was left, which was discarded. The plates were incubated at 37° C. with shaking for 16-18 hours. The MIC was determined as the lowest concentration that inhibited growth and had no turbidity by visual inspection.

[10] = test system: E. coli BW25113 ΔtolC gyrR isolate GyrA Phe96Leu; experiment: MIC against gyramide-resistant mutant; conditions: Escherichia coli, BW25113
Protocol: as §2

[11] = test system: E. coli BW25113 ΔtolC gyrR isolate GyrA His45Tyr; experiment: MIC against gyramide-resistant mutant; conditions: Escherichia coli, BW25113
Protocol: as §2

[12] = test system: E. coli BW25113 ΔtolC gyrR isolate GyrB Thr508Met; experiment: MIC against gyramide-resistant mutant; conditions: Escherichia coli, BW25113
Protocol: as §2

[13] = test system: E. coli BW25113 ΔtolC cipR isolate GyrA Asp87Gly; experiment: MIC against ciprofloxacin-resistant mutant; conditions: Escherichia coli, BW25113
Protocol: as §2

[14] = test system: E. coli BW25113 ΔtolC cipR isolate GyrB Ser464Phe; experiment: MIC against ciprofloxacin-resistant mutant; conditions: Escherichia coli, BW25113
Protocol: as §2

[15] = test system: gyramide A resistant mutants of E. coli; experiment: MIC against gyramide A resistant mutants compared to parent strain; conditions: ratio to MIC of parent strain E. coli BW25113 ΔtolC
Protocol: as §2

[16] = test system: ciprofloxacin resistant strains of E. coli; experiment: MIC against ciprofloxacin resistant strains compared to parent strain; conditions: ratio to MIC of parent strain E. coli BW25113 ΔtolC
Protocol: as §2

N#Cc1cccc(S(=O)(=O)N[C@@H]2CCN(Cc3ccc(-c4ccccc4)cc3)C2)c1 [Gyramide C2, gyramide C2]
MIC (Bacillus cereus): > 16 µg/mL | MIC (Bacillus subtilis 168): > 16 µg/mL | MIC (E. coli JW5503 (deltolC)): 0.015 µg/mL (≈ 0.0359 µM) | MIC (E. coli MG1655): 16 µg/mL (≈ 38.3 µM) | MIC (Enterococcus faecalis): > 16 µg/mL | MIC (Enterococcus faecium): > 16 µg/mL | MIC [1]: > 16 µg/mL | MIC [2]: > 16 µg/mL | MIC [3]: 2 µg/mL (≈ 4.79 µM) | MIC (Shigella flexneri): 8 µg/mL (≈ 19.2 µM) | MIC [4]: > 16 µg/mL | MIC [5]: > 16 µg/mL | MIC [6]: > 16 µg/mL | MIC (Streptococcus agalactiae): > 16 µg/mL | MIC (Streptococcus pyogenes): > 16 µg/mL | Kd for the association [7]: < 50 µM | concentration observed to kill mutant E. coli [8]: 300 nM | MIC (E. coli BW25113 ΔtolC; BW25113, E. coli BW25113 ΔtolC (parent strain), Table 4): 0.1 µM (≈ 0.0418 µg/mL) | MIC (E. coli BW25113 ΔtolC; BW25113, E. coli BW25113 ΔtolC (parent strain), Table 5): 0.1 µM (≈ 0.0418 µg/mL) | MIC (E. coli BW25113 ΔtolC; BW25113, E. coli BW25113 ΔtolC, without PAβN, Table 3): 0.25 µM (≈ 0.104 µg/mL) | MIC (Vibrio cholera; with PAβN (60 μM)): 40 µM (≈ 16.7 µg/mL) | MIC (Vibrio cholera; without PAβN): 160 µM (≈ 66.8 µg/mL) | MIC (Morganella morganii): > 640 µM | MIC (Morganella morganii; without PAβN): >640 µM | MIC (Shigella boydii; with PAβN (60 μM)): 1.25 µM (≈ 0.522 µg/mL) | MIC (Shigella boydii; without PAβN): 80 µM (≈ 33.4 µg/mL) | MIC (Klebsiella pneumonia; with PAβN (60 μM)): 20 µM (≈ 8.35 µg/mL) | MIC (Klebsiella pneumonia; without PAβN): > 640 µM | MIC (Salmonella typhimurium; with PAβN (60 μM)): 2.5 µM (≈ 1.04 µg/mL) | MIC (Salmonella typhimurium; without PAβN): > 640 µM | MIC [9]: 25.6 µM (≈ 10.7 µg/mL) | MIC [10]: 25.6 µM (≈ 10.7 µg/mL) | MIC [11]: > 25.6 µM | MIC [12]: 25.6 µM (≈ 10.7 µg/mL) | MIC [13]: 0.8 µM (≈ 0.334 µg/mL) | MIC [14]: 0.4 µM (≈ 0.167 µg/mL) | MIC against gyramide A resistant mutants compared to the parent strain [15]: > 200 times | MIC against ciprofloxacin resistant strains compared to the parent strain [16]: 4-8 times
